Data published in the NIST ThermoML archive (doi:10.1016/j.fluid.2009.11.017).
± gives the expanded uncertainty stated by the source.

Conditions: Liquid, Ebulliometric method (Recirculating still)

| Structure (SMILES) | vapor or sublimation pressure (365.49 K) [kPa] | vapor or sublimation pressure (376.75 K) [kPa] | vapor or sublimation pressure (385.55 K) [kPa] | vapor or sublimation pressure (392.87 K) [kPa] | vapor or sublimation pressure (398.66 K) [kPa] | vapor or sublimation pressure (404.09 K) [kPa] | vapor or sublimation pressure (408.83 K) [kPa] | vapor or sublimation pressure (413.06 K) [kPa] | vapor or sublimation pressure (417.28 K) [kPa] | vapor or sublimation pressure (344.79 K) [kPa] | vapor or sublimation pressure (357.27 K) [kPa] | vapor or sublimation pressure (365.3 K) [kPa] | vapor or sublimation pressure (372.09 K) [kPa] | vapor or sublimation pressure (377.89 K) [kPa] | vapor or sublimation pressure (382.18 K) [kPa] | vapor or sublimation pressure (386.25 K) [kPa] | vapor or sublimation pressure (390.38 K) [kPa] | vapor or sublimation pressure (394.05 K) [kPa] |
| --- | --- | --- | --- | --- | --- | --- | --- | --- | --- | --- | --- | --- | --- | --- | --- | --- | --- | --- |
| Cc1ccccc1C [1,2-dimethylbenzene] | 20.4 ± 0.35 | 30.14 ± 0.35 | 40.2 ± 0.36 | 50.43 ± 0.37 | 60.03 ± 0.38 | 70.27 ± 0.4 | 80.41 ± 0.41 | 90.54 ± 0.43 | 101.85 ± 0.44 | – | – | – | – | – | – | – | – | – |
| C1CCSC1 [tetrahydrothiophene] | – | – | – | – | – | – | – | – | – | 20.39 ± 0.35 | 32.09 ± 0.36 | 42.29 ± 0.37 | 52.61 ± 0.38 | 63.09 ± 0.39 | 71.89 ± 0.41 | 81.18 ± 0.42 | 91.67 ± 0.44 | 102.02 ± 0.45 |
